Measured values published in ChEMBL document CHEMBL4665836, “Overcoming β-Lactam resistance in Pseudomonas aeruginosa using non-canonical tobramycin-based antibiotic adjuvants” (2020).
≈ marks a conversion by molar mass, not a printed value.

Columns and labels:
Assay type in all cases: functional
Pseudomonas aeruginosa [1] = test: Potentiation of ceftazidime-induced antibacterial activity against carbapenem-resistant Pseudomonas aeruginosa 109084 clinical isolate assessed as fold reduction in ceftazidime MIC at 8 uM
Pseudomonas aeruginosa [2] = test: Potentiation of ceftazidime-induced antibacterial activity against carbapenem-resistant Pseudomonas aeruginosa 108590 clinical isolate assessed as fold reduction in ceftazidime MIC at 8 uM
Pseudomonas aeruginosa [3] = test: Potentiation of ceftazidime-induced antibacterial activity against carbapenem-resistant Pseudomonas aeruginosa 107092 clinical isolate assessed as fold reduction in ceftazidime MIC at 8 uM
Pseudomonas aeruginosa [4] = test: Potentiation of ceftazidime-induced antibacterial activity against carbapenem-resistant Pseudomonas aeruginosa 88949 clinical isolate assessed as fold reduction in ceftazidime MIC at 8 uM
Pseudomonas aeruginosa [5] = test: Potentiation of ceftazidime-induced antibacterial activity against carbapenem-resistant Pseudomonas aeruginosa 86052 clinical isolate assessed as fold reduction in ceftazidime MIC at 8 uM
Pseudomonas aeruginosa [6] = test: Potentiation of aztreonam-induced antibacterial activity against carbapenem-resistant Pseudomonas aeruginosa 109084 clinical isolate assessed as fold reduction in aztreonam MIC at 8 uM
Pseudomonas aeruginosa [7] = test: Potentiation of aztreonam-induced antibacterial activity against carbapenem-resistant Pseudomonas aeruginosa 108590 clinical isolate assessed as fold reduction in aztreonam MIC at 8 uM
Pseudomonas aeruginosa [8] = test: Potentiation of aztreonam-induced antibacterial activity against carbapenem-resistant Pseudomonas aeruginosa 107092 clinical isolate assessed as fold reduction in aztreonam MIC at 8 uM
Pseudomonas aeruginosa [9] = test: Potentiation of aztreonam-induced antibacterial activity against carbapenem-resistant Pseudomonas aeruginosa 88949 clinical isolate assessed as fold reduction in aztreonam MIC at 8 uM
Pseudomonas aeruginosa [10] = test: Potentiation of aztreonam-induced antibacterial activity against carbapenem-resistant Pseudomonas aeruginosa 86052 clinical isolate assessed as fold reduction in aztreonam MIC at 8 uM
Pseudomonas aeruginosa [11] = test: Antibacterial activity against Pseudomonas aeruginosa PAO750 harboring mexAB-oprM/mexCD-oprJ/mexEF-oprN/mexJK/mexXY/opmH efflux deficient mutant
Pseudomonas aeruginosa [12] = test: Antibacterial activity against Pseudomonas aeruginosa PAO200 harboring mexAB-oprM efflux deficient mutant
Pseudomonas aeruginosa [13] = test: Potentiation of imipenem-induced antibacterial activity against carbapenem-resistant Pseudomonas aeruginosa 109084 clinical isolate assessed as fold reduction in imipenem MIC at 8 uM
Pseudomonas aeruginosa [14] = test: Potentiation of imipenem-induced antibacterial activity against carbapenem-resistant Pseudomonas aeruginosa 108590 clinical isolate assessed as fold reduction in imipenem MIC at 8 uM
Pseudomonas aeruginosa [15] = test: Potentiation of imipenem-induced antibacterial activity against carbapenem-resistant Pseudomonas aeruginosa 107092 clinical isolate assessed as fold reduction in imipenem MIC at 8 uM
Pseudomonas aeruginosa [16] = test: Potentiation of imipenem-induced antibacterial activity against carbapenem-resistant Pseudomonas aeruginosa 88949 clinical isolate assessed as fold reduction in imipenem MIC at 8 uM
Pseudomonas aeruginosa [17] = test: Potentiation of imipenem-induced antibacterial activity against carbapenem-resistant Pseudomonas aeruginosa 86052 clinical isolate assessed as fold reduction in imipenem MIC at 8 uM
Pseudomonas aeruginosa [18] = test: Antibacterial activity against wild type Pseudomonas aeruginosa PAO1

## NC(=O)[C@@H]1CC[C@@H]2CN1C(=O)N2OS(=O)(=O)O [AVIBACTAM]
Pseudomonas aeruginosa [1]
  fold change (FC): 2
Pseudomonas aeruginosa [2]
  fold change (FC): 2
Pseudomonas aeruginosa [3]
  fold change (FC): 2
Pseudomonas aeruginosa [4]
  fold change (FC): 2
Pseudomonas aeruginosa [5]
  fold change (FC): 2
Pseudomonas aeruginosa [6]
  fold change (FC): 2
Pseudomonas aeruginosa [7]
  fold change (FC): 2
Pseudomonas aeruginosa [8]
  fold change (FC): 2
Pseudomonas aeruginosa [9]
  fold change (FC): 2
Pseudomonas aeruginosa [10]
  fold change (FC): 2

## O=C(O)c1cn(C2CC2)c2cc(N3CCNCC3)c(F)cc2c1=O [CIPROFLOXACIN]
Pseudomonas aeruginosa [11]
  MIC: 0.0078 µg/mL (≈ 0.0235 µM)
Pseudomonas aeruginosa [12]
  MIC: 0.0156 µg/mL (≈ 0.0471 µM)

## O.O=C(NC1CCNCC1)[C@@H]1CC[C@@H]2CN1C(=O)N2OS(=O)(=O)O [RELEBACTAM]
Pseudomonas aeruginosa [13]
  fold change (FC): 2
Pseudomonas aeruginosa [14]
  fold change (FC): 2
Pseudomonas aeruginosa [15]
  fold change (FC): 2
Pseudomonas aeruginosa [16]
  fold change (FC): 2
Pseudomonas aeruginosa [17]
  fold change (FC): 2

## NC[C@H]1O[C@H](O[C@H]2[C@H](O)[C@@H](O[C@H]3O[C@H](CO)[C@@H](O)[C@H](N)[C@H]3O)[C@H](N)C[C@@H]2N)[C@H](N)C[C@@H]1O [TOBRAMYCIN]
Pseudomonas aeruginosa [11]
  MIC: 1 µg/mL (≈ 2.14 µM)
Pseudomonas aeruginosa [12]
  MIC: 1 µg/mL (≈ 2.14 µM)
Pseudomonas aeruginosa [18]
  MIC: 1 µg/mL (≈ 2.14 µM)
